Results reported in US12391658B2, “Sulfoxide and sulfone glucokinase activators and methods of use thereof” (vTv Therapeutics LLC, priority 2020, dated 2025).
In brackets after ≈: the same amount, converted by molar mass. Read-outs that look alike come from different tables or passages of the source. Marks after values point to notes of the source that are not given here.

Columns and labels:
efflux transporter = test: Efflux substrate activity (monolayer efflux assay); format: in vitro ADME; details: tested concentrations of 12.5 μg/mL and 50 μg/mL
Protocol: (§1) The cell-based bidirectional permeability assay (or monolayer efflux assay) is a method for determining transporter inhibition (such as P-glycoprotein (P-gp) or Breast Cancer Resistance Protein (BCRP)) potential of test compounds in drug discovery. The experimental protocol for this assay is well established and typically, bidirectional permeability of a known substrate is assessed alone and in the presence of a single concentration of test compound to estimate the inhibition potential.
(§2) The monolayer efflux assay, where the ratio of basolateral-to-apical (B→A) permeability versus apical-to-basolateral (A→B) permeability is compared with a value of 1, is regarded as the standard for identifying substrates. Due to concentration-dependent inhibition of active efflux on the apical side by inhibitors, the B→A permeability decreases whilst A→B permeability increases with ratio approaching unity as the dose of inhibitor increases. The affinity of inhibitor to efflux protein(s) may be studied by calculating the active flux that can be obtained from the B→A fluxes in the absence and presence of efflux inhibitors. Inhibition potency, determined by inhibitor concentration-dependent transport assay, is usually represented as an IC50 value, the concentration that gives 50% of maximum inhibition of a known P-gp or BCRP substrate. Specificity of the inhibitor to P-gp or BCRP may be determined by competitive assays, which involve a transport assay of a known substrate in the presence of known inhibitors (specific to various transporters) with and without test compounds. Thus, appropriate design of competitive inhibition assays using known selected substrates and modulators will show the specificity of an inhibitor towards an efflux pump.
The potential for P-glycoprotein (P-gp) substrate inhibitory activity of a test compound may be evaluated by determining a test compound's Caco-2 permeability in the presence or absence of a P-gp inhibitor such as Cyclosporin A (CsA) or verapamil.
(§3) The substrate and inhibitor potential of a test compound for the apical efflux transported breast cancer resistance protein (BCRP) may also be evaluated using a bidirectional permeability assessment where the controls are Ko143 (a potent inhibitor of BCRP) and E3S (estrone-3-sulphate, a substrate for BCRP) and across a range of test compound concentrations such as 1, 5, 20, 100, and 200 μg/mL or 1.6, 3.2, 16, 32, 160 and 320 μg/mL).
(§4) The Caco-2 permeability, P-gp substrate and inhibitory activity, and BCRP substrate and inhibitory activity of Sulfoxide-1, Sufloxide-1A, Sulfoxide-1B, Sulfone-1, and SM-1 was investigated using procedures similar to those described above.
(§5) As summarized in Table 2 below, except for Sulfoxide-1B, all of the tested compounds had low Caco-2 cell permeability and were weak efflux transporter substrates at the tested concentrations of 12.5 μg/mL and 50 μg/mL.

[1] = target: T1, breast cancer resistance protein (BCRP) (Homo sapiens, UniProt Q9UNQ0); test: BCRP transporter inhibition; format: in vitro ADME
T1 construct: endogenous in cells
T1 sequence (Q9UNQ0 1-655): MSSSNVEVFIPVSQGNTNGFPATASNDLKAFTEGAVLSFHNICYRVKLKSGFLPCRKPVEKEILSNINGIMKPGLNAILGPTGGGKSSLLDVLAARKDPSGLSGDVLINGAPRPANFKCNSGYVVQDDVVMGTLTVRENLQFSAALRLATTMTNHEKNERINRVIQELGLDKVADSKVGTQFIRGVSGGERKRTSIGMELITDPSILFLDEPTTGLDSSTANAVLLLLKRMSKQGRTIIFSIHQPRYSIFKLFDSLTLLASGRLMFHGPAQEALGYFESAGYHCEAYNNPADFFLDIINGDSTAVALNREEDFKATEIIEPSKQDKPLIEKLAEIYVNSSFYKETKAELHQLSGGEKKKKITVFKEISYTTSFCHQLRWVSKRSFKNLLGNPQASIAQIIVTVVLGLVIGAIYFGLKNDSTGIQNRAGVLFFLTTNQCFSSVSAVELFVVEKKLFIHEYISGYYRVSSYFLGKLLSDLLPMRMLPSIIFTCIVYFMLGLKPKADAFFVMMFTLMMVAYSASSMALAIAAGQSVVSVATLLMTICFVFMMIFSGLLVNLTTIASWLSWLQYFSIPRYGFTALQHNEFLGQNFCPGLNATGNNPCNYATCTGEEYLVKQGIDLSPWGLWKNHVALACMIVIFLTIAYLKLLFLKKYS
Protocol: as §1, §2, §3, §4

P-glycoprotein (P-gp) = target: T2, P-glycoprotein (P-gp) (Homo sapiens, UniProt P08183); test: P-gp transporter inhibition; format: in vitro ADME
T2 construct: the P-gp transporter expressed on Caco-2 cell monolayers; endogenous in cells; host or cells: Caco-2
T2 sequence (P08183 whole entry): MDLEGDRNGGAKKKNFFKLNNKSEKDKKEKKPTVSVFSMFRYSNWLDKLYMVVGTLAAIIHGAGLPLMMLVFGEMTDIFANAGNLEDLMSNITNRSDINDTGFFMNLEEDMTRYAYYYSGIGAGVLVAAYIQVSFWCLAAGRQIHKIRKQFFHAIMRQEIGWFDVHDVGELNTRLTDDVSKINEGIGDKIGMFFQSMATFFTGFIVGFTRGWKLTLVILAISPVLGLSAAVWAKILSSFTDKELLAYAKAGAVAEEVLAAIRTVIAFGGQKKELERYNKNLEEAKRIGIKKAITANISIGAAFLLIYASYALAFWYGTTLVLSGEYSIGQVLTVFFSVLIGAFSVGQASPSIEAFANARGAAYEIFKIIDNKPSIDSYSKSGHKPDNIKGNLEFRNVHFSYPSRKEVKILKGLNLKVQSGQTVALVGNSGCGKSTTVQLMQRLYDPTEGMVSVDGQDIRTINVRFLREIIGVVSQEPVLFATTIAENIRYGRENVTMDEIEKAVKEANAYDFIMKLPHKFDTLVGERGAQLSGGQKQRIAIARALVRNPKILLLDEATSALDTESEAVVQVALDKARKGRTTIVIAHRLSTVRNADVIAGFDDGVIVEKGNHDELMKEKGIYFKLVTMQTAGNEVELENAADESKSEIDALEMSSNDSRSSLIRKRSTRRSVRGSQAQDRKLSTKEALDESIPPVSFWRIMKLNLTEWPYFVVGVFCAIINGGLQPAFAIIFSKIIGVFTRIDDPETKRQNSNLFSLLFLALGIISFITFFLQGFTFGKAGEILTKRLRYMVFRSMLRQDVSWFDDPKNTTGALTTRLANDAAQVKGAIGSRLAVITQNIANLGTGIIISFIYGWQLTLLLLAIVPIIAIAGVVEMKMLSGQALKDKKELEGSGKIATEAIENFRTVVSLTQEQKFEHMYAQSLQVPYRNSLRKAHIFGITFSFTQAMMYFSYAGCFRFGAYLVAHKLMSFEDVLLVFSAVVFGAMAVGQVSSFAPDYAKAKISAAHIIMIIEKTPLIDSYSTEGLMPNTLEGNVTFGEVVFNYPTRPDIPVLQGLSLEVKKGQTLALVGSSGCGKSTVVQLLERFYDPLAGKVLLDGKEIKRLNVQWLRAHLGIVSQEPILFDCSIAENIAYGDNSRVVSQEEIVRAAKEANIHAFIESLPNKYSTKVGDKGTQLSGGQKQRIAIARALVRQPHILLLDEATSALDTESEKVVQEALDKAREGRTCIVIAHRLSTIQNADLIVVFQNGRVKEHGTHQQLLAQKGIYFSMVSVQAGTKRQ
Protocol: as §1, §2
The potential inhibitory activity of a compound on the P-gp transporter expressed on Caco-2 cell monolayers may be investigated in experiments monitoring the bi-directional transport of a test compound in the presence or absence of a P-gp inhibitor such as Cyclosporin A (CsA) or verapamil.
The potential inhibitory activity of a compound on the P-gp transporter expressed on Caco-2 cell monolayers may also be investigated in experiments monitoring the bi-directional transport of [^3H]-digoxin in the presence of increasing concentrations of a test compound (such as 1, 5, 20, 100, and 200 μg/mL or 1.6, 3.2, 16, 32, 160 and 320 μg/mL). If the efflux of [^3H]-digoxin is not inhibited by a test compound, the test compound is likely a poor inhibitor of P-gp. If the efflux of [^3H]-digoxin is inhibited by a test compound, the IC50 value may be calculated using a non-linear regression of permeability data collected at various concentrations.
as §4

Aqueous solubility = format: physicochemical; details: for aqueous solubility compared with SM-1: across a range of pH's
Source text: The aqueous solubility of Sulfoxide-1, Sufloxide-1A, Sulfoxide-1B, Sulfone-1, and SM-1 was investigated.

Caco-2 monolayers = test: Caco-2 permeability; format: in vitro ADME, human; details: tested concentrations of 12.5 μg/mL and 50 μg/mL
Source text: Differentiated Caco-2 cells form a polarized epithelial cell monolayer that provides a physical and biochemical barrier to the passage of ions and small molecules. Using commercially available kits, the Caco-2 monolayer may be used as an in vitro model of the human small intestinal mucosa to predict the intestinal permeability or absorption of orally administered drugs. Researchers have shown a correlation for some molecules between the in vitro apparent permeability (Papp) across Caco-2 monolayers and the in vivo fraction absorbed.
The permeability of a compound may be evaluated in a bi-directional transport experiments at multiple concentrations (such as 1, 2, 5, 20, 100 and 200 μg/mL) using Caco-2 monolayers. The apparent permeability coefficients (Papp) for a compound may be calculated and compared with the permeability of a high permeability marker (such as labetalol) and a low permeability marker (such as mannitol).
as §4, §5

[2] = 0.1N HCl, simulated gastric fluid, 0.1N HCl, read-out: Solubility
[3] = acetate buffer, pH 4.5, aqueous buffer, Acetate Buffer pH 4.5, read-out: Solubility
[4] = phosphate buffer, pH 6.5, aqueous buffer, Phosphate Buffer pH 6.5, read-out: Solubility

Which “Efflux Transporter Substrate” value (efflux transporter) does the source give for `CCCO[C@H]1CC[C@H](N(C(=O)Nc2ncc([S+]([O-])CC(=O)O)s2)C2CCCCC2)CC1` (relative stereo) [Sulfoxide-1, {2-[3-Cyclohexyl-3-(trans-4-propoxy-cyclohexyl)-ureido]-thiazol-5-ylsulfinyl}-acetic acid] here?
The value was “Yes”.

What about the “BCRP inhibitory activity, rank among the tested compounds” value (from here on “BCRP inhibitory activity”) [1] of the same compound?
Its value is “weakest BCRP inhibitors”.

What about the IC50 [1] of the same compound?
The IC50 was greater than 212 µM.

And the IC50 (P-glycoprotein (P-gp))?
Its IC50 is roughly 212 µM.

And the solubility (Aqueous solubility; [2])?
The solubility was 30 µg/mL (≈ 0.0636 mM).

And the solubility (Aqueous solubility; [3])?
Its solubility is 2570 µg/mL (≈ 5.45 mM).

What about the “aqueous solubility compared with SM-1” value (Aqueous solubility) of the same compound?
The value was “much greater aqueous solubility than SM-1”.

What about the solubility (Aqueous solubility; [4]) of the same compound?
The solubility was 2930 µg/mL (≈ 6.21 mM).

What about the “Caco-2 Permeability” value (Caco-2 monolayers) of the same compound?
Its value is “Low”.

With `CCCO[C@H]1CC[C@H](N(C(=O)Nc2ncc([S+]([O-])CC(=O)O)s2)C2CCCCC2)CC1` (single isomer, unassigned) [Sulfoxide-1B, {2-[3-Cyclohexyl-3-(trans-4-propoxy-cyclohexyl)-ureido]-thiazol-5-ylsulfinyl}-acetic acid] as the compound, how does the “Efflux Transporter Substrate” value (efflux transporter) read?
The value was “not an efflux transporter substrate and No”.

What about the “BCRP inhibitory activity” value [1] of the same compound?
The value was “weakest BCRP inhibitors”.

What about the IC50 [1] of the same compound?
The IC50 was greater than 212 µM.

And the IC50 (P-glycoprotein (P-gp))?
The IC50 was greater than 212 µM.

What about the “P-gp inhibitory activity, rank among the tested compounds” value (P-glycoprotein (P-gp)) of the same compound?
Its value is “weakest P-gp inhibitor”.

And the solubility (Aqueous solubility; 0.1N HCl)?
The solubility was 120 µg/mL (≈ 0.254 mM).

And the solubility (Aqueous solubility; Acetate Buffer pH 4.5)?
Its solubility is 1850 µg/mL (≈ 3.92 mM).

What about the solubility (Aqueous solubility; Phosphate Buffer pH 6.5) of the same compound?
Its solubility is 1990* μg/mL.

And the “aqueous solubility compared with SM-1” value (Aqueous solubility)?
The value was “much greater aqueous solubility than SM-1”.

And the “Caco-2 Permeability” value (Caco-2 monolayers)?
The value was “Moderate”.

Which results are given for `CCCO[C@H]1CC[C@H](N(C(=O)Nc2ncc([S+]([O-])CC(=O)O)s2)C2CCCCC2)CC1` (single isomer, unassigned) [Sulfoxide-1A, {2-[3-Cyclohexyl-3-(trans-4-propoxy-cyclohexyl)-ureido]-thiazol-5-ylsulfinyl}-acetic acid]?
Efflux Transporter Substrate (efflux transporter): Yes; IC50 [1]: ~170 µM; IC50 (P-glycoprotein (P-gp)): ~138 µM; solubility (Aqueous solubility; [2]): 120 µg/mL (≈ 0.254 mM); solubility (Aqueous solubility; [3]): 1630 µg/mL (≈ 3.46 mM); aqueous solubility compared with SM-1 (Aqueous solubility): much greater aqueous solubility than SM-1; solubility (Aqueous solubility; [4]): 1940 µg/mL (≈ 4.11 mM); Caco-2 Permeability (Caco-2 monolayers): Low

With `CCCO[C@H]1CC[C@H](N(C(=O)Nc2ncc(S(=O)(=O)CC(=O)O)s2)C2CCCCC2)CC1` [Sulfone-1, {2-[3-Cyclohexyl-3-(trans-4-propoxy-cyclohexyl)-ureido]-thiazol-5-ylsulfonyl}-acetic acid] as the compound, how does the “Efflux Transporter Substrate” value (efflux transporter) read?
Its value is “Yes”.

What about the “BCRP inhibitory activity” value [1] of the same compound?
Its value is “weakest BCRP inhibitors”.

And the IC50 [1]?
The IC50 was greater than 205 µM.

And the IC50 (P-glycoprotein (P-gp))?
The IC50 was roughly 205 µM.

And the solubility (Aqueous solubility; [2])?
Its solubility is 10 µg/mL (≈ 0.0205 mM).

What about the solubility (Aqueous solubility; [3]) of the same compound?
The solubility was 2070 µg/mL (≈ 4.24 mM).

And the “aqueous solubility compared with SM-1” value (Aqueous solubility)?
The value was “much greater aqueous solubility than SM-1”.

What about the solubility (Aqueous solubility; [4]) of the same compound?
The solubility was 2100 µg/mL (≈ 4.31 mM).

And the “Caco-2 Permeability” value (Caco-2 monolayers)?
Its value is “Low”.

Which “Efflux Transporter Substrate” value (efflux transporter) does the source give for `CCCO[C@H]1CC[C@H](N(C(=O)Nc2ncc(SCC(=O)O)s2)C2CCCCC2)CC1` [SM-1, {2-[3-cyclohexyl-3-(trans-4-propoxy-cyclohexyl)-ureido]-thiazol-5-ylsulfanyl}-acetic acid, reference compound] here?
Its value is “Yes”.

And the “BCRP inhibitory activity” value [1]?
The value was “strongest BCRP inhibitor”.

And the IC50 [1]?
Its IC50 is 19.5 µM.

And the IC50 (P-glycoprotein (P-gp))?
The IC50 was 115 µM.

And the solubility (Aqueous solubility; [3])?
Its solubility is 0.44 µg/mL (≈ 0.000966 mM).

What about the solubility (Aqueous solubility; [4]) of the same compound?
The solubility was 21 µg/mL (≈ 0.0461 mM).

And the “Caco-2 Permeability” value (Caco-2 monolayers)?
Its value is “Low”.
